Earlier results as cited in US20060165806A1, “Nanoparticulate candesartan formulations” (Elan Pharma International Limited, priority 2005, published 2006).

Legend:
ACE (kininase II) = ACE (kininase II) (Homo sapiens, UniProt P12821)
[1] = system: other hormone receptors or ion channels known to be important in cardiovascular regulation; conditions: receptors and channels important in cardiovascular regulation
AT1 receptor = target: T1, AT1 receptor (Homo sapiens, UniProt P30556); conditions: AT1 versus AT2 receptor
T1 sequence (P30556 1-359): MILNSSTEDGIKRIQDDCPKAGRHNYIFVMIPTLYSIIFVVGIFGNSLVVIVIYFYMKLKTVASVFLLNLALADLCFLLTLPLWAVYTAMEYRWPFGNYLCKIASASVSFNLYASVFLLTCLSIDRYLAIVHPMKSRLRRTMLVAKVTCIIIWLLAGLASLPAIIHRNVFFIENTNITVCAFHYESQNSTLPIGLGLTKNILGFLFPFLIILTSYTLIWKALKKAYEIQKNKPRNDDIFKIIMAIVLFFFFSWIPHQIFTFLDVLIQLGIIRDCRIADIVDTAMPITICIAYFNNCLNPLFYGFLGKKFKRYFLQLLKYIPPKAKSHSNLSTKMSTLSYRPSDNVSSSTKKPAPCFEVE

ACE (kininase II), sequence (P12821 30-1306, species assumed): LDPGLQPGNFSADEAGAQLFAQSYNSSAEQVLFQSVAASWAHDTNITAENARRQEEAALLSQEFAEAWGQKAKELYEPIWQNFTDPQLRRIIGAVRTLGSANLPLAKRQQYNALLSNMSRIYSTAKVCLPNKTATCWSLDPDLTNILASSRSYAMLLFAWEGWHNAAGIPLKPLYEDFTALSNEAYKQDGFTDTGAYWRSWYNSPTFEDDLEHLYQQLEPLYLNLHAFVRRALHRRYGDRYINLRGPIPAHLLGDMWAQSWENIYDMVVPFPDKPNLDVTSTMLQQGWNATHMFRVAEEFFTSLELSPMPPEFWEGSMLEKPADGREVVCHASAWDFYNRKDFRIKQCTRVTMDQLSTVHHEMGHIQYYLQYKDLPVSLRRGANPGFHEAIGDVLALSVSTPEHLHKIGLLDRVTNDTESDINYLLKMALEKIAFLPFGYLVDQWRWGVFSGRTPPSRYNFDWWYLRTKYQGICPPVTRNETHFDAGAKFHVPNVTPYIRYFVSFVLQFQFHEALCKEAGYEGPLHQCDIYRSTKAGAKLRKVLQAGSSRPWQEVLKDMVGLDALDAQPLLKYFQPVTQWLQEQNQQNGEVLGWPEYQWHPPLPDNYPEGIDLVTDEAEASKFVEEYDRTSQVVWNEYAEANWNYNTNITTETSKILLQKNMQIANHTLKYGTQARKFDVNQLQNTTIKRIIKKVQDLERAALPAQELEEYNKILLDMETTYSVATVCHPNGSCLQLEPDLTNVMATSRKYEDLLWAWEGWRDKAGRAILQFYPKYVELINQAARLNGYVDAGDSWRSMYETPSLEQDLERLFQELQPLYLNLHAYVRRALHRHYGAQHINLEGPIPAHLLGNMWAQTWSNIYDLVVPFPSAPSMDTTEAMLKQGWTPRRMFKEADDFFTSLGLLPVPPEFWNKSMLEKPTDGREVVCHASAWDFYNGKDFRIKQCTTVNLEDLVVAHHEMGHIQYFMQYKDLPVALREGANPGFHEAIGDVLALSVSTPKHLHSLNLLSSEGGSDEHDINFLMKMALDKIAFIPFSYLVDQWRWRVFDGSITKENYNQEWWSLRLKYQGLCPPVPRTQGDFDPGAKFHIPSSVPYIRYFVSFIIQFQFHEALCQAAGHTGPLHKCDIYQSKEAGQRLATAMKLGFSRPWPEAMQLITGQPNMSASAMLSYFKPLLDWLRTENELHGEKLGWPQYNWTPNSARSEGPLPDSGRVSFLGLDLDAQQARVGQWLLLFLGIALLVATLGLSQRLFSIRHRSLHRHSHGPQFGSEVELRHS

SMILES	inhibition of ACE (kininase II) (ACE (kininase II))	binding to or blocking of other hormone receptors or ion channels [1]	greater affinity for the AT1 receptor than for the AT2 receptor (AT1 receptor)	solubility in water
CCOc1nc2cccc(C(=O)O)c2n1Cc1ccc(-c2ccccc2-c2nnn[nH]2)cc1 [Candesartan]	does not inhibit	does not bind to or block	> 10,000 fold	
CCOc1nc2cccc(C(=O)OC(C)OC(=O)OC3CCCCC3)c2n1Cc1ccc(-c2ccccc2-c2nnn[nH]2)cc1 (racemic) [Candesartan cilexitil, (“)-1-Hydroxyethyl 2-ethoxy-1-[p-(o-1H-tetrazol-5-ylphenyl)benzyl]-7-benzimidazolecarboxylate, cyclohexyl carbonate(ester)]				practically insoluble
